Results from the METLIN SMRT retention time set (Domingo-Almenara et al. 2019).

Experiment: gradient 5% acetonitrile 3 min, to 50% in 2 min, to 85% in 15 min, held 3 min, 100 µL/min
Conditions: column: Zorbax Extend-C18 2.1 x 50 mm; eluents: water / acetonitrile, 0.1% formic acid
How it was run: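 Retention times come from adduct peaks that were picked computationally and then checked by hand. The standards, pure and pooled in mixtures of ~100 molecules, were run on a Zorbax Extend-C18 column (2.1 × 50 mm, 1.8 μm) at 100 μL/min with water and acetonitrile, each with 0.1% formic acid. Detection was by quadrupole time-of-flight mass spectrometry in positive and negative ionization mode, with a dead volume of 40 μL and a dwell volume of 900 μL.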

Row | SMILES | RP-LC retention time
1 | Cc1sc(-c2cc(C(F)(F)F)on2)cc1S(=O)(=O)NCC(C)c1ccccc1 (configuration not stated) | 1230 s
2 | O=C1c2ccccc2C(=O)N1CCSc1nnc2sc3ccccc3n12 | 696 s
3 | O=C(NCCc1ccccc1)c1cc2sccc2n1Cc1ccc(F)cc1 | 1140 s
4 | CCOc1cc(=O)c(C(=O)N2CCN(c3ncccn3)CC2)nn1-c1ccc(C)cc1 | 751 s
5 | CCCCSc1cc(C)nc(N)n1 | 698 s
6 | CC(NC(=O)Nc1ccccc1)C(c1ccccc1)N1CCN(C)CC1 (configuration not stated) | 572 s
7 | CC(C)C(=O)Nc1ccc2c(c1)Sc1ncccc1C(=O)N2C(C)C | 764 s
8 | Cc1cccc(C(=O)NCc2nn(C)c3ccccc23)c1 | 814 s
9 | O=C(Nc1ccc2c(c1)OCCO2)N1CCc2nc(-c3ccc(F)cc3)ncc2C1 | 898 s
10 | O=C(CCc1csc2nc(-c3ccc(Cl)cc3)cn12)Nc1nccs1 | 774 s
11 | CCn1cc(CCNS(=O)(=O)c2cccc(C#N)c2)c2cccnc21 | 733 s
12 | COc1ccc(-c2nc(COc3cc(C)c4c(C)nn(C)c4n3)c(C)o2)cc1 | 1120 s
13 | Cn1cc(CCN2CCN(C(=O)c3ccccc3Br)CC2)c2cccnc21 | 598 s
14 | Cc1cc(F)cc2c(=O)c3c([nH]c12)CCN(CC(=O)Nc1ccc2c(c1)OCO2)C3 | 615 s
15 | Cc1c(Cn2c(C)nc3c(C(=O)O)cc(N4CCOCC4)cc32)cccc1C(F)(F)F | 741 s
16 | COc1ccc(-c2cn3c(CC(=O)Nc4ccc(Cl)c(C(F)(F)F)c4)csc3n2)cc1OC | 882 s
17 | COc1ccc(CN2CC3(CCN(S(=O)(=O)c4cc(C)ccc4C)CC3)C2=O)cc1 | 932 s
18 | Cc1ccc(S(=O)(=O)Nc2cccc(-c3cn4ccccc4n3)c2)cc1C | 648 s
19 | O=C(c1ccco1)N1CCN(S(=O)(=O)CCCOc2ccc3c(c2)OCO3)CC1 | 764 s
20 | COc1ccccc1CC(=O)N1CCCn2nc(-c3ccc(C)cc3)cc2C1 | 930 s

Other lines, results leading:

Row | RP-LC retention time | SMILES
21 | 601 s | CC(CCNC(=O)c1cc(S(=O)(=O)N2CCCC2)ccc1Cl)N1CCCC1 (configuration not stated)
22 | 1180 s | CC1CCCN(c2nn(CC(=O)Nc3ccccc3Cl)c(=O)c3ccccc23)C1 (configuration not stated)
23 | 929 s | CN(C)c1ccc(C(=O)N2CCC(COc3ccc(C(=O)N4CCCCC4)cc3)CC2)cc1
24 | 564 s | CS(=O)(=O)Nc1cccc(NC(=O)C2CCN(CC(=O)Nc3ccc(F)cc3)CC2)c1
25 | 638 s | O=C(CCc1cc2ccccc2[nH]c1=O)N1CCN(C(=O)c2ccco2)CC1
26 | 847 s | O=C(NC1CC1)[C@@H]1C[C@H](Oc2ccccc2)CN1C(=O)c1cc2ccccc2[nH]1
27 | 1210 s | Cc1ccc(-c2noc(C3CCCN3C(=O)c3ccc(C(C)C)cc3)n2)cc1 (configuration not stated)
28 | 690 s | COc1nccnc1NC1CCN(C(=O)c2ccco2)CC1
29 | 937 s | CCCCOc1ccc(CNC(=O)C2CCN(C(=O)c3cc4ccsc4[nH]3)CC2)cc1
30 | 831 s | COc1ccccc1C(=O)N1CCCC1c1cc(C(C)C)no1 (configuration not stated)
31 | 956 s | O=C(C1CC1)N1CCC(c2noc(-c3ccccc3)n2)C1 (configuration not stated)
32 | 591 s | O=C(NC1CC(=O)N(C2CC2)C1)C1CC=CCC1 (configuration not stated)
33 | 788 s | CCc1ccc(NC(=O)Cn2cnc3nc4c(cc3c2=O)CCCC4)cc1
34 | 895 s | O=C(Nc1cc(F)cc(F)c1)NC1CCN(c2ccc(F)cc2)C1=O (configuration not stated)
35 | 590 s | O=C(Nc1ccc2c(c1)OCCO2)N1CCCn2nc(-c3ccncc3)cc2C1
36 | 1070 s | CC1CCN(S(=O)(=O)c2ccc3c(ccn3CC(=O)NCC(C)c3ccccc3)c2)CC1 (configuration not stated)
37 | 625 s | O=C(c1ccco1)N1CCC(n2c(C3CCCC3)nc3cccnc32)C1 (configuration not stated)
